Values quoted from earlier work in patent US20150018665A1, “MOLECULAR AND CELLULAR IMAGING USING ENGINEERED HEMODYNAMIC RESPONSES” (Massachusetts Institute of Technology, priority 2013, published 2015).

Molecular target: nNOS (Homo sapiens, UniProt P29475)
Conditions: blockade of nNOS

Chain of nNOS (P29475 whole entry, species assumed): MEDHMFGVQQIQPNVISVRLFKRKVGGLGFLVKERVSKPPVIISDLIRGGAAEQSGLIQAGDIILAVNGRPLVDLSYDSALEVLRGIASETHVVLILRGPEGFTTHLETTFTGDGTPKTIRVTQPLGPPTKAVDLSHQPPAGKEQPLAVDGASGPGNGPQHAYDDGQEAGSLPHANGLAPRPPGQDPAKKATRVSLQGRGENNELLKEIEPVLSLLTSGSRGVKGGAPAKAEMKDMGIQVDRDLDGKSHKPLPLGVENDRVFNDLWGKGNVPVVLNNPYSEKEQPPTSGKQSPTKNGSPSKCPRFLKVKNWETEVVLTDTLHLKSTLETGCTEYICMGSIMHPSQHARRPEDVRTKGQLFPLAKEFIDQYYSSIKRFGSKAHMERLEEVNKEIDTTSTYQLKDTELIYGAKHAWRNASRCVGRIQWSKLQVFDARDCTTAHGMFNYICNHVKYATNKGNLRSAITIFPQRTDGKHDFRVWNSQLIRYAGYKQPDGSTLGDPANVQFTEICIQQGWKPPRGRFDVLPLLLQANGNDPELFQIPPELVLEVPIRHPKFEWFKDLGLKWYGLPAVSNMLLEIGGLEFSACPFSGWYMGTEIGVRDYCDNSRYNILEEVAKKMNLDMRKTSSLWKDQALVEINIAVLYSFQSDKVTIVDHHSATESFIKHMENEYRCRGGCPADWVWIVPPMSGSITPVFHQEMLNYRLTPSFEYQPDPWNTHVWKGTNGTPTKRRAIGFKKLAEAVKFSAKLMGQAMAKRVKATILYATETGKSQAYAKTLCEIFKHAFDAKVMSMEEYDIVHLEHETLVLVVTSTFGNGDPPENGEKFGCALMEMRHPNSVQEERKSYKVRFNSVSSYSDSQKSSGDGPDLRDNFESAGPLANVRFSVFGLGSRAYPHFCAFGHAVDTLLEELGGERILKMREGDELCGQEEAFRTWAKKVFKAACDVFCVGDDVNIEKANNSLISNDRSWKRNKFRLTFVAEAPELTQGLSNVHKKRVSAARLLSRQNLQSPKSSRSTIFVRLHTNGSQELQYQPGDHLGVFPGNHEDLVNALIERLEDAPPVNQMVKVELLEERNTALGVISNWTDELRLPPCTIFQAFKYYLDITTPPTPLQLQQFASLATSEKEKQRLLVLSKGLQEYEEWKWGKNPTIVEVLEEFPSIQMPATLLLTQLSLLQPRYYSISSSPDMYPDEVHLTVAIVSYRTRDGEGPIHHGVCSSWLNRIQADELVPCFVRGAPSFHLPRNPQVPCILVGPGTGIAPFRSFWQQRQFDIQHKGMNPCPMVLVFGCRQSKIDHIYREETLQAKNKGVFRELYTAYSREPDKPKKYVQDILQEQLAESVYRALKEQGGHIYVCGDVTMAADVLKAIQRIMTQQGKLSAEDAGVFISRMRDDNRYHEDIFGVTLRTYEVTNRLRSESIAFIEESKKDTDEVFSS

In the case of `NC(=NCCC[C@H](N)C(=O)O)N[N+](=O)[O-]` [L-nitroarginine], the “effect on fMRI-detectable responses to stimulation” value is given as “abolishes or sharply reduces”.
